Measured values from ChEMBL document CHEMBL3885861, “Open TG-GATES”.

Organism: Rattus norvegicus
Assay: Open TG-GATES - Regimen: Single
Format: toxicity, organism-based, Sprague-Dawley
Parameters: regimen Single, gender Male, age 6 weeks
Conditions: in vivo, po, route gavage; for APTT / Bas / Eos / Fbg / Hb / Ht / Lym / MCH / MCHC / MCV / Mono / PT / Plat / RBC / Ret / WBC: tissue Blood; for KIDNEY_L / KIDNEY_R / KIDNEY_TOTAL: tissue Kidney; for LIVER: tissue Liver
[1] = 0 mg/kg, 3 h, dose level Control
[2] = 0 mg/kg, 3 h, tissue Plasma, dose level Control
[3] = 0 mg/kg, 6 h, dose level Control
[4] = 0 mg/kg, 6 h, tissue Plasma, dose level Control
[5] = 0 mg/kg, 9 h, dose level Control
[6] = 0 mg/kg, 9 h, tissue Plasma, dose level Control
[7] = 0 mg/kg, 24 h, dose level Control
[8] = 0 mg/kg, 24 h, tissue Plasma, dose level Control
[9] = 1 mg/kg, 3 h, tissue Plasma, dose level Low
[10] = 1 mg/kg, 6 h, tissue Plasma, dose level Low
[11] = 1 mg/kg, 9 h, tissue Plasma, dose level Low
[12] = 1 mg/kg, 24 h, tissue Plasma, dose level Low

## C#C[C@]1(O)CC[C@H]2[C@@H]3CCc4cc(O)ccc4[C@H]3CC[C@@]21C [ETHINYL ESTRADIOL]
[1]
  TERMINAL_BW: 196.6 g
  APTT: 16.9 s
  Bas: 0%
  Eos: 0.8%
  Fbg: 256 mg/dL
  Hb: 13.2 g/dL
  Ht: 39.9%
  Lym: 79.4%
  MCH: 21.8 pg
  MCHC: 33.1%
  MCV: 66 fL
  Mono: 3.8%
  PT: 12.2 s
  Plat: 117 x10_4/uL
  RBC: 604.8 x10_4/ul
  Ret: 9.9%
  WBC: 82.1 x10_2/uL
  KIDNEY_L: 0.8 g
  KIDNEY_R: 0.8 g
  KIDNEY_TOTAL: 1.7 g
  LIVER: 8.6 g
[2]
  ALP: 1558.8 IU/L
  ALT: 44 IU/L
  AST: 77.6 IU/L
  BUN: 10.6 mg/dL
  CRE: 0.2 mg/dL
  Ca: 11.3 mg/dL
  Cl: 107 meq/L
  DBIL: 0.02 mg/dL
  IP: 8.6 mg/dL
  K: 4 meq/L
  LDH: 56 IU/L
  Na: 142.4 meq/L
  PL: 157.6 mg/dL
  RALB: 2.6 g/dL
  TBIL: 0.044 mg/dL
  TC: 86.2 mg/dL
  TP: 5.5 g/dL
  gamma-GTP: 1.2 IU/L
[3]
  TERMINAL_BW: 194 g
  APTT: 16.2 s
  Bas: 0%
  Eos: 1%
  Fbg: 265.8 mg/dL
  Hb: 13.2 g/dL
  Ht: 39.3%
  Lym: 75%
  MCHC: 33.6%
  MCV: 63.4 fL
  PT: 12.3 s
  Plat: 123.8 x10_4/uL
  RBC: 620.2 x10_4/ul
  Ret: 9.8%
  WBC: 90.8 x10_2/uL
  KIDNEY_L: 0.8 g
  KIDNEY_R: 0.8 g
  KIDNEY_TOTAL: 1.7 g
  LIVER: 7.6 g
[4]
  ALP: 1686.2 IU/L
  ALT: 42 IU/L
  AST: 79.2 IU/L
  BUN: 7.6 mg/dL
  CRE: 0.2 mg/dL
  Ca: 10.8 mg/dL
  Cl: 109.4 meq/L
  DBIL: 0.012 mg/dL
  IP: 10.2 mg/dL
  K: 4 meq/L
  LDH: 53.6 IU/L
  Na: 144.6 meq/L
  PL: 122.6 mg/dL
  RALB: 2.6 g/dL
  TBIL: 0.046 mg/dL
  TC: 75.6 mg/dL
  TP: 5.4 g/dL
  gamma-GTP: 1 IU/L
[5]
  TERMINAL_BW: 195.8 g
  Bas: 0%
  Eos: 1%
  Fbg: 265.2 mg/dL
  Hb: 12.8 g/dL
  Ht: 38%
  Lym: 72.2%
  MCH: 21.8 pg
  MCHC: 33.6%
  MCV: 64.8 fL
  PT: 12.4 s
  Plat: 119.3 x10_4/uL
  RBC: 588 x10_4/ul
  Ret: 9.5%
  WBC: 73.4 x10_2/uL
  KIDNEY_L: 0.9 g
  KIDNEY_R: 0.9 g
  KIDNEY_TOTAL: 1.7 g
  LIVER: 7 g
[6]
  ALP: 1662.8 IU/L
  ALT: 42 IU/L
  AST: 75 IU/L
  BUN: 9.2 mg/dL
  CRE: 0.2 mg/dL
  Ca: 10.5 mg/dL
  Cl: 107.8 meq/L
  DBIL: 0.01 mg/dL
  IP: 10.7 mg/dL
  K: 3.8 meq/L
  LDH: 42 IU/L
  Na: 144 meq/L
  PL: 125.4 mg/dL
  RALB: 2.5 g/dL
  TBIL: 0.04 mg/dL
  TC: 77 mg/dL
  TP: 5.2 g/dL
  gamma-GTP: 1.2 IU/L
[7]
  TERMINAL_BW: 203.2 g
  APTT: 16.4 s
  Bas: 0%
  Eos: 1%
  Fbg: 245.4 mg/dL
  Hb: 12.9 g/dL
  Ht: 38.3%
  Lym: 76.2%
  MCH: 21.6 pg
  MCHC: 33.6%
  MCV: 64.4 fL
  Mono: 3.6%
  PT: 12.5 s
  Plat: 112.7 x10_4/uL
  RBC: 594.4 x10_4/ul
  Ret: 8.5%
  WBC: 103.2 x10_2/uL
  KIDNEY_L: 0.9 g
  KIDNEY_R: 0.9 g
  KIDNEY_TOTAL: 1.7 g
  LIVER: 8.9 g
[8]
  ALP: 1908.8 IU/L
  ALT: 52.2 IU/L
  AST: 78.6 IU/L
  BUN: 13.8 mg/dL
  CRE: 0.2 mg/dL
  Cl: 104.8 meq/L
  DBIL: 0.01 mg/dL
  GLC: 194.2 mg/dL
  IP: 7.7 mg/dL
  LDH: 62.4 IU/L
  Na: 141 meq/L
  PL: 136.2 mg/dL
  RALB: 2.5 g/dL
  TBIL: 0.034 mg/dL
  TC: 84.6 mg/dL
  TP: 5.4 g/dL
  gamma-GTP: 0.8 IU/L
1 mg/kg, 3 h, dose level Low
  TERMINAL_BW: 195 g
  APTT: 16.3 s
  Bas: 0%
  Eos: 1%
  Fbg: 258.2 mg/dL
  Hb: 13 g/dL
  Ht: 39.1%
  Lym: 80.2%
  MCH: 21.9 pg
  MCHC: 33.4%
  MCV: 65.4 fL
  Mono: 3.4%
  PT: 12.3 s
  Plat: 118.9 x10_4/uL
  RBC: 598.2 x10_4/ul
  Ret: 9.4%
  WBC: 96.2 x10_2/uL
  KIDNEY_L: 0.8 g
  KIDNEY_R: 0.8 g
  KIDNEY_TOTAL: 1.6 g
  LIVER: 8.5 g
[9]
  ALP: 1630.2 IU/L
  ALT: 49 IU/L
  AST: 78.4 IU/L
  BUN: 11 mg/dL
  CRE: 0.2 mg/dL
  Cl: 106 meq/L
  IP: 9.2 mg/dL
  LDH: 54.2 IU/L
  PL: 146.4 mg/dL
  RALB: 2.6 g/dL
  TBIL: 0.038 mg/dL
  TC: 77.6 mg/dL
  TP: 5.5 g/dL
1 mg/kg, 6 h, dose level Low
  TERMINAL_BW: 195.9 g
  APTT: 15.3 s
  Bas: 0%
  Eos: 1%
  Fbg: 262.8 mg/dL
  Hb: 12.9 g/dL
  Ht: 38.6%
  Lym: 68.6%
  MCH: 21.8 pg
  MCHC: 33.5%
  MCV: 65.2 fL
  Mono: 2.4%
  PT: 12.4 s
  Plat: 110.9 x10_4/uL
  RBC: 591.6 x10_4/ul
  Ret: 9.8%
  WBC: 83.7 x10_2/uL
  KIDNEY_L: 0.8 g
  KIDNEY_R: 0.8 g
  KIDNEY_TOTAL: 1.7 g
  LIVER: 8 g
[10]
  ALP: 1545.4 IU/L
  ALT: 40.8 IU/L
  AST: 80.8 IU/L
  BUN: 8 mg/dL
  CRE: 0.2 mg/dL
  Ca: 10.5 mg/dL
  Cl: 109.4 meq/L
  DBIL: 0.01 mg/dL
  IP: 10 mg/dL
  K: 4 meq/L
  LDH: 42.2 IU/L
  Na: 144.6 meq/L
  PL: 112 mg/dL
  RALB: 2.4 g/dL
  TBIL: 0.04 mg/dL
  TC: 55 mg/dL
  TP: 5.2 g/dL
1 mg/kg, 9 h, dose level Low
  TERMINAL_BW: 196.1 g
  APTT: 15.5 s
  Bas: 0%
  Eos: 0.8%
  Fbg: 265.6 mg/dL
  Hb: 12.7 g/dL
  Ht: 37.6%
  Lym: 75.4%
  MCH: 21.9 pg
  MCHC: 33.7%
  MCV: 65.1 fL
  Mono: 2.4%
  PT: 12.8 s
  Plat: 110 x10_4/uL
  RBC: 578.2 x10_4/ul
  Ret: 9.3%
  WBC: 75.5 x10_2/uL
  KIDNEY_L: 0.9 g
  KIDNEY_R: 0.8 g
  KIDNEY_TOTAL: 1.7 g
  LIVER: 7.7 g
[11]
  ALP: 1698.8 IU/L
  ALT: 37.6 IU/L
  AST: 75.6 IU/L
  BUN: 9.2 mg/dL
  CRE: 0.2 mg/dL
  Ca: 10.6 mg/dL
  Cl: 109 meq/L
  DBIL: 0.012 mg/dL
  IP: 10.2 mg/dL
  K: 3.8 meq/L
  LDH: 40.6 IU/L
  Na: 145.2 meq/L
  PL: 96.4 mg/dL
  RALB: 2.5 g/dL
  TBIL: 0.042 mg/dL
  TC: 44.8 mg/dL
  TP: 5.2 g/dL
  gamma-GTP: 1.2 IU/L
1 mg/kg, 24 h, dose level Low
  TERMINAL_BW: 200.1 g
  APTT: 14.9 s
  Bas: 0%
  Eos: 1%
  Fbg: 224.6 mg/dL
  Hb: 13.1 g/dL
  Lym: 75.2%
  MCHC: 34%
  MCV: 62.5 fL
  Mono: 3.4%
  PT: 13.2 s
  Plat: 107.2 x10_4/uL
  RBC: 619.8 x10_4/ul
  Ret: 7.6%
  WBC: 93.7 x10_2/uL
  KIDNEY_L: 0.9 g
  KIDNEY_R: 0.9 g
  KIDNEY_TOTAL: 1.8 g
  LIVER: 9.3 g
[12]
  ALP: 2023.4 IU/L
  AST: 74.8 IU/L
  CRE: 0.2 mg/dL
  Ca: 10.8 mg/dL
  Cl: 106.4 meq/L
  DBIL: 0.024 mg/dL
  IP: 7.4 mg/dL
  K: 4 meq/L
  LDH: 59.6 IU/L
  Na: 142.8 meq/L
  PL: 113.6 mg/dL
  RALB: 2.5 g/dL
  TBIL: 0.034 mg/dL
  TC: 40.8 mg/dL
  TP: 5.3 g/dL
  gamma-GTP: 1.2 IU/L
